# Reference: PMC9516332 (Frontiers in Oncology, 2022)
# Where two headings read alike, the source gives them in different places.
# Tested on: 134 cancer cell lines
# Assay: Cell viability assay (ATPlite, 72 hours), IC50 on cancer cell line panel
compound,measurement,setting,value
CN1CCN(c2ccc(C(=O)Nc3n[nH]c4ccc(Cc5cc(F)cc(F)c5)cc34)c(NC3CCOCC3)c2)CC1 [entrectinib],IC50,"HEC-6, read-out: IC50 in cell proliferation assay, HEC-6 cell line (EGFR p.A289V)",6.83 µM
same,IC50,"Homo sapiens, 769-P, read-out: IC50 in cell proliferation assay, cell line 769-P",6.69 µM
same,IC50,"Homo sapiens, 786-0, read-out: IC50 in cell proliferation assay, cell line 786-O",5.12 µM
same,IC50,"Homo sapiens, A 172, read-out: IC50 in cell proliferation assay, cell line A-172",4.96 µM
same,IC50,"Homo sapiens, A204, read-out: IC50 in cell proliferation assay, cell line A-204",5.98 µM
same,IC50,"Homo sapiens, A498, read-out: IC50 in cell proliferation assay, cell line A-498",7.97 µM
same,IC50,"Homo sapiens, A549, read-out: IC50 in cell proliferation assay, cell line A-549",8.78 µM
same,IC50,"Homo sapiens, A704, read-out: IC50 in cell proliferation assay, cell line A-704",6.87 µM
same,IC50,"Homo sapiens, A-375, read-out: IC50 in cell proliferation assay, cell line A-375 (BRAF p.V600E)",5.84 µM
same,IC50,"Homo sapiens, A-427, read-out: IC50 in cell proliferation assay, cell line A-427",3.49 µM
same,IC50,"Homo sapiens, ACHN, read-out: IC50 in cell proliferation assay, cell line ACHN",5.79 µM
same,IC50,"Homo sapiens, AN3-CA, read-out: IC50 in cell proliferation assay, cell line AN3-CA (FGFR2 p.N549K)",3.78 µM
same,IC50,"Homo sapiens, ASPC1, read-out: IC50 in cell proliferation assay, cell line AsPC-1",7.99 µM
same,IC50,"Homo sapiens, AU565, read-out: IC50 in cell proliferation assay, cell line AU565 (ERBB2 amplification)",8.63 µM
same,IC50,"Homo sapiens, BT-20, read-out: IC50 in cell proliferation assay, cell line BT-20",10.7 µM
same,IC50,"Homo sapiens, BT-474, read-out: IC50 in cell proliferation assay, cell line BT-474 (ERBB2 amplification)",6.15 µM
same,IC50,"Homo sapiens, BT-549, read-out: IC50 in cell proliferation assay, cell line BT-549",7.41 µM
same,IC50,"Homo sapiens, BXPC-3, read-out: IC50 in cell proliferation assay, cell line BxPC-3",6.09 µM
same,IC50,"Homo sapiens, C-33-A, read-out: IC50 in cell proliferation assay, cell line C-33 A",5.23 µM
same,IC50,"Homo sapiens, CAL-27, read-out: IC50 in cell proliferation assay, cell line CAL-27",5.15 µM
same,IC50,"Homo sapiens, CCF-STTG1, read-out: IC50 in cell proliferation assay, cell line CCF-STTG1",10.7 µM
same,IC50,"Homo sapiens, CCRF-CEM, read-out: IC50 in cell proliferation assay, cell line CCRF-CEM",9.03 µM
same,IC50,"Homo sapiens, COLO 205, read-out: IC50 in cell proliferation assay, cell line COLO 205 (BRAF p.V600E)",7.72 µM
same,IC50,"Homo sapiens, COLO-829, read-out: IC50 in cell proliferation assay, cell line COLO 829 (BRAF p.V600E)",8.95 µM
same,IC50,"Homo sapiens, DLD-1, read-out: IC50 in cell proliferation assay, cell line DLD-1",10.5 µM
same,IC50,"Homo sapiens, DU-4475, read-out: IC50 in cell proliferation assay, cell line DU4475 (BRAF p.V600E)",8.22 µM
same,IC50,"Homo sapiens, Daoy, read-out: IC50 in cell proliferation assay, cell line Daoy",5.1 µM
same,IC50,"Homo sapiens, DoTc2-4510, read-out: IC50 in cell proliferation assay, cell line DoTc2 4510",4.69 µM
same,IC50,"Homo sapiens, EOL1, read-out: IC50 in cell proliferation assay, cell line EoL-1 (FIP1L1-PDGFRA)",0.512 µM
same,IC50,"Homo sapiens, FaDu, read-out: IC50 in cell proliferation assay, cell line FaDu",5.64 µM
same,IC50,"Homo sapiens, G-361, read-out: IC50 in cell proliferation assay, cell line G-361 (BRAF p.V600E)",4.67 µM
same,IC50,"Homo sapiens, HCC827, read-out: IC50 in cell proliferation assay, cell line HCC827 (EGFR exon19del)",2.98 µM
same,IC50,"Homo sapiens, HCC4006, read-out: IC50 in cell proliferation assay, cell line HCC4006 (EGFR exon19del)",4.96 µM
same,IC50,"Homo sapiens, HCT-15, read-out: IC50 in cell proliferation assay, cell line HCT 15",7.64 µM
same,IC50,"Homo sapiens, HCT-116, read-out: IC50 in cell proliferation assay, cell line HCT 116",4.66 µM
same,IC50,"Homo sapiens, HEC-1, read-out: IC50 in cell proliferation assay, HEC-1 cell line",3.73 µM
same,IC50,"Homo sapiens, HEC-1B, read-out: IC50 in cell proliferation assay, HEC-1-B cell line (EGFR p.A864V)",2.24 µM
same,IC50,"Homo sapiens, HL-60, read-out: IC50 in cell proliferation assay, HL-60 cell line",5.68 µM
same,IC50,"Homo sapiens, HT, read-out: IC50 in cell proliferation assay, HT cell line",12 µM
same,IC50,"Homo sapiens, HT-1080, read-out: IC50 in cell proliferation assay, HT-1080 cell line",7.36 µM
same,IC50,"Homo sapiens, Hs746T, read-out: IC50 in cell proliferation assay, Hs 746.T cell line (MET exon14skip + amplification)",10.9 µM
same,IC50,"Homo sapiens, Hs-578T, read-out: IC50 in cell proliferation assay, Hs 578T cell line",7.05 µM
same,IC50,"Homo sapiens, HuTu80, read-out: IC50 in cell proliferation assay, HuTu 80 cell line",3.57 µM
same,IC50,"Homo sapiens, J82, read-out: IC50 in cell proliferation assay, J82 cell line",7.16 µM
same,IC50,"Homo sapiens, Jurkat E6.1, read-out: IC50 in cell proliferation assay, Jurkat E6.1 cell line",8.24 µM
same,IC50,"Homo sapiens, K562, read-out: IC50 in cell proliferation assay, K-562 cell line",5.82 µM
same,IC50,"Homo sapiens, KATO III, read-out: IC50 in cell proliferation assay, KATO III cell line (FGFR2 amplification)",1.43 µM
same,IC50,"Homo sapiens, KG-1, read-out: IC50 in cell proliferation assay, KG-1 cell line (FGFR1OP2-FGFR1)",1.53 µM
same,IC50,"Homo sapiens, KLE, read-out: IC50 in cell proliferation assay, KLE cell line",4.33 µM
same,IC50,"Homo sapiens, KMS-11, read-out: IC50 in cell proliferation assay, KMS-11 cell line (FGFR3 p.Y373C)",4.82 µM
same,IC50,"Homo sapiens, KU812, read-out: IC50 in cell proliferation assay, Ku812 cell line",4.72 µM
same,IC50,"Homo sapiens, Kasumi 1, read-out: IC50 in cell proliferation assay, Kasumi-1 cell line (KIT p.N822K)",3.68 µM
same,IC50,"Homo sapiens, LC-2-ad, read-out: IC50 in cell proliferation assay, LC-2/ad cell line (CCDC6-RET)",1.81 µM
same,IC50,"Homo sapiens, LNCaP-Clone-FGC, read-out: IC50 in cell proliferation assay, LNCaP clone FGC cell line",10.9 µM
same,IC50,"Homo sapiens, LS174T, read-out: IC50 in cell proliferation assay, LS174T cell line",4.9 µM
same,IC50,"Homo sapiens, LS-411N, read-out: IC50 in cell proliferation assay, LS411N cell line (BRAF p.V600E)",9.55 µM
same,IC50,"Homo sapiens, LoVo, read-out: IC50 in cell proliferation assay, LoVo cell line",9.52 µM
same,IC50,"Homo sapiens, MCF7, read-out: IC50 in cell proliferation assay, MCF-7 cell line",3.83 µM
same,IC50,"Homo sapiens, MDA-MB-231, read-out: IC50 in cell proliferation assay, MDA-MB-231 cell line",4.59 µM
same,IC50,"Homo sapiens, MDA-MB-453, read-out: IC50 in cell proliferation assay, MDA-MB-453 cell line",11.5 µM
same,IC50,"Homo sapiens, MDA-MB-468, read-out: IC50 in cell proliferation assay, MDA-MB-468 cell line",11 µM
same,IC50,"Homo sapiens, MG-63, read-out: IC50 in cell proliferation assay, MG-63 cell line",3.8 µM
same,IC50,"Homo sapiens, MIA PaCa-2, read-out: IC50 in cell proliferation assay, MIA PaCa-2 cell line",5.16 µM
same,IC50,"Homo sapiens, MKN-45, read-out: IC50 in cell proliferation assay, MKN45 cell line (MET amplification)",11.8 µM
same,IC50,"Homo sapiens, MOLM-13, read-out: IC50 in cell proliferation assay, MOLM-13 cell line (FLT3 ITD)",0.214 µM
same,IC50,"Homo sapiens, MOLT-4, read-out: IC50 in cell proliferation assay, MOLT-4 cell line",11.3 µM
same,IC50,"Homo sapiens, MV4-11, read-out: IC50 in cell proliferation assay, MV4-11 cell line (FLT3 ITD)",0.281 µM
same,IC50,"Homo sapiens, MeWo, read-out: IC50 in cell proliferation assay, MeWo cell line",10.1 µM
